This note sets out measurements from US6967197B2, “Thiazepinyl hydroxamic acid derivatives as matrix metalloproteinase inhibitors” (Fujisawa Pharmaceutical Co., Ltd., priority 2000, dated 2005).

Usually IC50 stands for the point on the concentration scale where inhibition reaches its midpoint. Lower therefore signals greater potency.

The target of this test is T1, human MMP-9 (Homo sapiens, UniProt P14780).
T1 construct: purchased Yagai, Japan
Put plainly: Inhibitory activity of human MMP-9. Type of test: biochemical. Conditions: commercial kit (Yagai, Japan); degradation of FITC-labeled bovine type IV collagen after incubation for 4 hours at 42° C. The method, then:
Inhibitory Activity of Human MMP-9
The inhibitory activity of test compounds against human MMP-9 were measured by using commercial kits (Yagai, Japan). Gelatinolytic activity was determined by monitoring the degradation of FITC-labeled bovine type IV collagen after incubation for 4 hours at 42° C. The amount of degraded collagen was estimated by measuring the fluorescence intensity at 495 nm (excitation) and 520 nm (emission).
Inhibitory activity of human MMP-9 as mentioned above.

Structures are written as SMILES.

T1 sequence (P14780 94-707): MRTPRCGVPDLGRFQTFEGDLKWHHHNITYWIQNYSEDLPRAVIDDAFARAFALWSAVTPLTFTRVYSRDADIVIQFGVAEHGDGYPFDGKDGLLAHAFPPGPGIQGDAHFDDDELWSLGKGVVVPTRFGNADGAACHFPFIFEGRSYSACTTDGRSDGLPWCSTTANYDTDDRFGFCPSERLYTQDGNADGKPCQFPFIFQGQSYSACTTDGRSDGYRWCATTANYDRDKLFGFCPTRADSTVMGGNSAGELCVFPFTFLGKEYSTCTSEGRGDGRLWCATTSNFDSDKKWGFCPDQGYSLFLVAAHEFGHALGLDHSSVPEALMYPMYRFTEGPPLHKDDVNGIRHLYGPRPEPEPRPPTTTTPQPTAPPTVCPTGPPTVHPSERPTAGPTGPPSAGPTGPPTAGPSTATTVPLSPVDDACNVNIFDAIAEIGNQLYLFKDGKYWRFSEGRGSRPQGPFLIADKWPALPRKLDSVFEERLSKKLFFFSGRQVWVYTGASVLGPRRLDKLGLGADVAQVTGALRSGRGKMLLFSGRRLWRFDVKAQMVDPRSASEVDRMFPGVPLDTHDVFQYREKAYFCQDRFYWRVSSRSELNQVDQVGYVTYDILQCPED

For the compound `COc1ccc(-c2ccc(C3(CC(=O)NO)CCN(S(C)(=O)=O)CCS3(=O)=O)s2)cc1` (stereo not shown) [Example 17, N-hydroxy-2-[7-(5-(4-methoxyphenyl)-2-thienyl)-4-methanesulfonyl-1,1-dioxoperhydro-1,4-thiazepin-7-yl]acetamide], the IC50 turned out to be 2.85 nM.
